Settings: Liquid, Closed cell (Static) method

CCF [fluoroethane]
Settings | vapor or sublimation pressure [kPa]
253.15 K | 216.2
258.15 K | 261.4
263.15 K | 311.9
265.65 K | 342.3
268.15 K | 372.2
270.65 K | 405.3
273.15 K | 438.1
275.15 K | 468.9
278.15 K | 517.1
281.15 K | 567.1
283.15 K | 602.9
285.65 K | 650.2
288.15 K | 699
290.65 K | 752.4
293.15 K | 808.2
295.65 K | 866
298.15 K | 924.2
300.65 K | 990.3
303.15 K | 1051.4
305.65 K | 1121.5
308.15 K | 1192.8
310.65 K | 1269.5
313.15 K | 1348.6
315.65 K | 1428.6
318.5 K | 1516.5
320.65 K | 1607.1
323.15 K | 1703.9

FCC(F)(F)F [1,1,1,2-tetrafluoroethane]
Settings | vapor or sublimation pressure [kPa]
263.15 K | 202.6
268.15 K | 245.5
273.15 K | 294.12
283.15 K | 416.6
